Reference: ChEMBL document CHEMBL5385860, “Antiproliferative, antiangiogenic and apoptotic effect of new hybrids of quinazoline-4(3H)-ones and sulfachloropyridazine” (Eur J Med Chem, 2023)
pIC50: −log10 of the molar value.

Experiments:
[1] = tested on: SR; assay: Cytotoxicity against human SR cells assessed as growth inhibition at 10 uM relative to control; format: functional; conditions: read-out: GI
[2] = tested on: LOX IMVI; assay: Cytotoxicity against human LOX IMVI cells assessed as growth inhibition at 10 uM relative to control; format: functional; conditions: read-out: GI
[3] = tested on: K562; assay: Cytotoxicity against human K562 cells assessed as growth inhibition at 10 uM relative to control; format: functional; conditions: read-out: GI
[4] = tested on: UO-31; assay: Cytotoxicity against human UO-31 cells assessed as growth inhibition at 10 uM relative to control; format: functional; conditions: read-out: GI
[5] = tested on: A498; assay: Cytotoxicity against human A498 cells assessed as growth inhibition at 10 uM relative to control; format: functional; conditions: read-out: GI
[6] = tested on: MDA-MB-468; assay: Cytotoxicity against human MDA-MB-468 cells assessed as growth inhibition at 10 uM relative to control; format: functional; conditions: read-out: GI
[7] = tested on: HOP-92; assay: Cytotoxicity against human HOP-92 cells assessed as growth inhibition at 10 uM relative to control; format: functional; conditions: read-out: GI
[8] = tested on: Hs-578T; assay: Cytotoxicity against human Hs-578T cells assessed as growth inhibition at 10 uM relative to control; format: functional; conditions: read-out: GI
[9] = tested on: UACC-62; assay: Cytotoxicity against human UACC-62 cells assessed as growth inhibition at 10 uM relative to control; format: functional; conditions: read-out: GI
[10] = tested on: NCI-H522; assay: Cytotoxicity against human NCI-H522 cells assessed as growth inhibition at 10 uM relative to control; format: functional; conditions: read-out: GI
[11] = tested on: SNB-75; assay: Cytotoxicity against human SNB-75 cells assessed as growth inhibition at 10 uM relative to control; format: functional; conditions: read-out: GI
[12] = tested on: CAKI-1; assay: Cytotoxicity against human CAKI-1 cells assessed as growth inhibition at 10 uM relative to control; format: functional; conditions: read-out: GI
[13] = tested on: BT-549; assay: Cytotoxicity against human BT-549 cells assessed as growth inhibition at 10 uM relative to control; format: functional; conditions: read-out: GI
[14] = tested on: HCT-116; assay: cells; conditions: Homo sapiens, HCT-116, 24 h
[15] = tested on: 786-0; assay: Cytotoxicity against human 786-0 cells assessed as growth inhibition at 10 uM relative to control; format: functional; conditions: read-out: GI
[16] = tested on: HCT-116; assay: Cytotoxicity against human HCT-116 cells assessed as growth inhibition at 10 uM relative to control; format: functional; conditions: read-out: GI
[17] = tested on: M14; assay: Cytotoxicity against human M14 cells assessed as growth inhibition at 10 uM relative to control; format: functional; conditions: read-out: GI
[18] = tested on: M14; assay: cells; conditions: Homo sapiens, M14, 24 h
[19] = tested on: EKVX; assay: Cytotoxicity against human EKVX cells assessed as growth inhibition at 10 uM relative to control; format: functional; conditions: read-out: GI
[20] = tested on: MCF7; assay: Cytotoxicity against human MCF7 cells assessed as growth inhibition at 10 uM relative to control; format: functional; conditions: read-out: GI
[21] = tested on: NCI-H226; assay: Cytotoxicity against human NCI-H226 cells assessed as growth inhibition at 10 uM relative to control; format: functional; conditions: read-out: GI
[22] = tested on: ACHN; assay: Cytotoxicity against human ACHN cells assessed as growth inhibition at 10 uM relative to control; format: functional; conditions: read-out: GI
[23] = tested on: HOP-62; assay: Cytotoxicity against human HOP-62 cells assessed as growth inhibition at 10 uM relative to control; format: functional; conditions: read-out: GI
[24] = tested on: MDA-MB-231; assay: Cytotoxicity against human MDA-MB-231 cells assessed as growth inhibition at 10 uM relative to control; format: functional; conditions: read-out: GI

O=C(CSc1nc2ccccc2c(=O)n1-c1ccc(S(=O)(=O)Nc2ccc(Cl)nn2)cc1)Nc1ccc(S(=O)(=O)Nc2ccc(Cl)nn2)cc1 gave an inhibition of growth at 10 µM [1] of 13%, an inhibition of growth at 10 µM [2] of 10% and an inhibition of growth at 10 µM [3] of 12%. The inhibition of growth at 10 µM [4] was 12%.
For CNC(=O)CSc1nc2ccccc2c(=O)n1-c1ccc(S(=O)(=O)Nc2ccc(Cl)nn2)cc1, the inhibition of growth at 10 µM [2] was 24%.
Molecule CCn1c(SCC(=O)Nc2ccc(S(=O)(=O)Nc3ccc(Cl)nn3)cc2)nc2ccccc2c1=O has an inhibition of growth at 10 µM [1] of 12%, an inhibition of growth at 10 µM [5] of 10% and an inhibition of growth at 10 µM [4] of 12%.
With O=C(CSc1nc2ccccc2c(=O)n1-c1ccc(S(=O)(=O)Nc2ccc(Cl)nn2)cc1)NC1CCCCC1 the inhibition of growth at 10 µM [6] was 10%, the inhibition of growth at 10 µM [7] was 11% and the inhibition of growth at 10 µM [5] was 11%. For the same molecule, the inhibition of growth at 10 µM [8] was 10%, the inhibition of growth at 10 µM [9] was 10% and the inhibition of growth at 10 µM [10] was 11%. The inhibition of growth at 10 µM [11] was 16%.
NS(=O)(=O)c1ccc(NC(=O)CSc2nc3ccccc3c(=O)n2-c2ccc(S(=O)(=O)Nc3ccc(Cl)nn3)cc2)cc1 was tested, and the inhibition of growth at 10 µM [12] was 12%, the inhibition of growth at 10 µM [8] was 13% and the inhibition of growth at 10 µM [9] was 14%. For the same molecule, the inhibition of growth at 10 µM [4] was 10% and the inhibition of growth at 10 µM [11] was 27%.
Molecule Cc1ccc2[nH]c(=S)n(-c3ccc(S(=O)(=O)Nc4ccc(Cl)nn4)cc3)c(=O)c2c1 has an inhibition of growth at 10 µM [13] of 17%, a pIC50 [14] of 4.55 and an inhibition of growth at 10 µM [15] of 39%. It also gave an inhibition of growth at 10 µM [16] of 60%, an inhibition of growth at 10 µM [12] of 10% and an inhibition of growth at 10 µM [17] of 100%. It also gave an inhibition of growth at 10 µM [4] of 15% and a pIC50 [18] of 4.89.
In the case of Cn1c(SCC(=O)Nc2ccc(S(=O)(=O)Nc3ccc(Cl)nn3)cc2)nc2ccccc2c1=O, the inhibition of growth at 10 µM [13] was 17%, the inhibition of growth at 10 µM [19] was 10% and the inhibition of growth at 10 µM [7] was 17%. The inhibition of growth at 10 µM [5] was 19% and the inhibition of growth at 10 µM [4] was 12%.
Work on O=c1c2ccccc2[nH]c(=S)n1-c1ccc(S(=O)(=O)Nc2ccc(Cl)nn2)cc1 yielded an inhibition of growth at 10 µM [12] of 10%, an inhibition of growth at 10 µM [4] of 17% and an inhibition of growth at 10 µM [10] of 11%.
Molecule COc1cc2[nH]c(=S)n(-c3ccc(S(=O)(=O)Nc4ccc(Cl)nn4)cc3)c(=O)c2cc1OC has an inhibition of growth at 10 µM [16] of 11%, an inhibition of growth at 10 µM [12] of 10% and an inhibition of growth at 10 µM [4] of 16%. For the same molecule, the inhibition of growth at 10 µM [11] was 10%.
In the case of O=c1c2cc3ccccc3cc2[nH]c(=S)n1-c1ccc(S(=O)(=O)Nc2ccc(Cl)nn2)cc1, the inhibition of growth at 10 µM [20] was 11%, the inhibition of growth at 10 µM [2] was 12% and the inhibition of growth at 10 µM [12] was 10%. For the same molecule, the inhibition of growth at 10 µM [4] was 18% and the inhibition of growth at 10 µM [10] was 10%.
For O=c1c2cc(Cl)cc(Cl)c2[nH]c(=S)n1-c1ccc(S(=O)(=O)Nc2ccc(Cl)nn2)cc1, the pIC50 [14] was 4.70, the inhibition of growth at 10 µM [15] was 21% and the inhibition of growth at 10 µM [16] was 48%. For the same molecule, the inhibition of growth at 10 µM [12] was 11%, the inhibition of growth at 10 µM [5] was 12% and the inhibition of growth at 10 µM [17] was 78%. It also gave an inhibition of growth at 10 µM [4] of 19%, a pIC50 [18] of 4.39 and an inhibition of growth at 10 µM [10] of 10%.
In the case of CCCCNC(=O)CSc1nc2ccccc2c(=O)n1-c1ccc(S(=O)(=O)Nc2ccc(Cl)nn2)cc1, the inhibition of growth at 10 µM [5] was 25% and the inhibition of growth at 10 µM [4] was 12%.
In the case of O=c1c2cccc(Br)c2[nH]c(=S)n1-c1ccc(S(=O)(=O)Nc2ccc(Cl)nn2)cc1, the inhibition of growth at 10 µM [12] was 13%, the inhibition of growth at 10 µM [4] was 20% and the inhibition of growth at 10 µM [10] was 12%. It also gave an inhibition of growth at 10 µM [11] of 11%.
For O=C(CSc1nc2ccccc2c(=O)n1Cc1ccccc1)Nc1ccc(S(=O)(=O)Nc2ccc(Cl)nn2)cc1, the inhibition of growth at 10 µM [20] was 13%, the inhibition of growth at 10 µM [21] was 12% and the inhibition of growth at 10 µM [1] was 10%. The inhibition of growth at 10 µM [22] was 10%, the inhibition of growth at 10 µM [12] was 13% and the inhibition of growth at 10 µM [23] was 11%. For the same molecule, the inhibition of growth at 10 µM [4] was 21% and the inhibition of growth at 10 µM [24] was 13%.
